The results in this text go back to ChEMBL document CHEMBL1123144, “Studies on 4(1H)-quinazolinones. 5. Synthesis and antiinflammatory activity of 4(1H)-quinazolinone derivatives” (J Med Chem, 1985).

The test system of series [1] is Rattus norvegicus. As to the kind of experiment: Percent inhibition against carrageenan-induced rat paw edema at 50 mg/kg dose administered perorally; 0-10%. It is filed as functional. To be noted: route oral.
Series [2] deals with Rattus norvegicus. As to the kind of experiment: Percent inhibition against carrageenan-induced rat paw edema at 50 mg/kg dose administered perorally; 11-20%. It is filed as functional. The conditions noted are these: route oral. For orientation: Carrageenan injected into the paw causes an acute inflammation.
Series [3] deals with Rattus norvegicus. As to the kind of experiment: Percent inhibition against carrageenan-induced rat paw edema at 50 mg/kg dose administered perorally; 21-30%. The format is functional. The conditions noted are these: route oral.
Series [4] deals with Rattus norvegicus. Kind of series: Percent inhibition against carrageenan-induced rat paw edema at 50 mg/kg dose administered perorally; 31-40%. It is filed as functional. To be noted: route oral.
Series [5] concerns Mus musculus. Kind of series: Toxicity by number of mice dead at dose 500 mg/kg out of 5 mice tested by oral administration route; Value represented as 1/5. It is filed as organism-based. Also on record: dose 500 mg/kg, route oral. To be noted: in vivo.
The test system of series [6] is Mus musculus. Kind of series: Ulcer index by number of mice bearing ulcer at dose 60 mg/kg out of 5 mice tested. The format is functional.
Series [7] deals with Rattus norvegicus. As to the kind of experiment: Percent inhibition against carrageenan-induced rat paw edema at 50 mg/kg dose administered perorally. The format is functional. To be noted: route oral.
Series [8] relates to Rattus norvegicus. Kind of series: Anti-inflammatory activity following oral administration. It is filed as functional.
In series [9] the test system is Mus musculus. Kind of series: Number of mice bearing ulcer at dose 60 mg/kg out of 5 mices tested. The format is functional.
Series [10] has as its system Rattus norvegicus. Kind of series: Analgesic activity by oral administration route. It is filed as functional.
The test system of series [11] is Rattus norvegicus. Kind of series: Percent inhibition against carrageenan-induced rat paw edema at 50 mg/kg dose administered perorally; 41-50%. The conditions noted are these: route oral. The format is functional.
In series [12] the test system is Mus musculus. As to the kind of experiment: Ulcer index by number of mice bearing ulcer at dose 45 mg/kg out of 5 mice tested. It is filed as functional.
Series [13] has as its system Mus musculus. Kind of series: Number of mice bearing ulcer at dose 45 mg/kg out of 5 mices tested. It is filed as functional.
Series [14] relates to Mus musculus. Kind of series: Toxicity by number of mice dead at dose 500 mg/kg out of 5 mice tested by oral administration route; Value represented as 5/5. It is filed as organism-based. To be noted: in vivo. Set-up: dose 500 mg/kg, route oral.
In series [15] the test system is Mus musculus. As to the kind of experiment: Number of mice bearing ulcer at dose 48 mg/kg out of 5 mices tested. The format is functional.
Series [16] concerns Mus musculus. As to the kind of experiment: Ulcer index by number of mice bearing ulcer at dose 48 mg/kg out of 5 mice tested. The format is functional.
In series [17] the test system is Mus musculus. As to the kind of experiment: Toxicity by number of mice dead at dose 500 mg/kg out of 5 mice tested by oral administration route; Value represented as 0/5. The format is organism-based. Also on record: dose 500 mg/kg, route oral. The conditions noted are these: in vivo.
For series [18], the system named is Rattus norvegicus. As to the kind of experiment: Analgesic activity by oral administration of 200 mg/kg; Not effective. Set-up: dose 200 mg/kg. It is filed as functional, organism-based.

Active and inactive are the calls of the source. The rule behind the calls is not given here. Some results are limits rather than exact numbers.

What is called inhibition in vivo is the change of the read-out against control, counted positive when it falls. Read a low inhibition in vivo as a weak effect. For `COC(=O)CCc1nc(=O)c2ccccc2n1-c1ccccc1`, the inhibition in vivo at 50 mg/kg in series [1] came to 10%.

For the molecule `O=c1nc(C2CC2)n(-c2ccc([N+](=O)[O-])cc2)c2ccccc12`, the inhibition in vivo at 50 mg/kg in [1] amounted to 10%. Take `COc1cccc2c1c(=O)nc(-c1ccccc1)n2C(C)C`: the inhibition in vivo at 50 mg/kg in series [2] stood at 20%. Consider `CN(C)c1nc(=O)c2ccccc2n1-c1ccccc1`, for which the inhibition in vivo at 50 mg/kg in series [1] was found to be 10%. As to `CC(=O)c1ccc(-n2c(C(C)C)nc(=O)c3ccccc32)cc1`, the inhibition in vivo at 50 mg/kg in [3] was 30%.

In turn, `COc1ccc2c(c1)c(=O)nc(-c1ccccc1)n2C(C)C` had an inhibition in vivo at 50 mg/kg in series [4] of 40%. In series [1], `CC(C)N1c2ccccc2C(=O)NC1c1ccccc1Cl` (stereo not drawn) had an inhibition in vivo at 50 mg/kg of 10%. Take `CC(C)n1c(-c2ccccc2)nc2ccccc2c1=O`: the inhibition in vivo at 50 mg/kg in series [3] is 30%.

`CC(C)c1nc(=O)n(-c2ccccc2)c2ccccc12`: the inhibition in vivo at 50 mg/kg in series [1] came out at 10%. For the molecule `COc1ccc2c(c1)c(=O)nc(-c1ccccc1F)n2C(C)C`, at 50 mg/kg the inhibition in vivo in series [3] was 30%. `CC(C)n1c(-c2ccccc2F)nc(=O)c2ccccc21`: in [5], the Toxicity is given as 1. In [6], the “Ulcer Index” value came out at 0.1. In addition, the inhibition in vivo at 50 mg/kg in series [7] is at least 51%. For the same molecule, the ED30 in [8] is 20 mg/kg; in series [10], 65 mg/kg. In series [9], this molecule gave a No. of mice of 1.

In the case of `CC(C)n1c(-c2ccccc2F)nc(=O)c2ccc(Cl)cc21`, at 50 mg/kg the inhibition in vivo in series [4] was 40%.

For the molecule `CC(C)n1c(-c2ccc(Cl)c(Cl)c2)nc(=O)c2ccccc21`, in series [11], the inhibition in vivo at 50 mg/kg worked out at 50%. Consider `CC(C)c1nc2ccccc2c(=O)n1-c1ccccc1`, for which, in [3], the inhibition in vivo at 50 mg/kg stood at 30%. `CC(C)c1nc(=O)c2ccccc2n1-c1ccc([N+](=O)[O-])cc1` gave an inhibition in vivo at 50 mg/kg in series [4] of 40%. In [1], `O=c1nc(CCl)n(-c2ccccc2)c2ccccc12` returned an inhibition in vivo at 50 mg/kg of 10%. Regarding `O=c1nc(C2CC2)n(-c2ccccc2)c2ccccc12`, in series [7], the inhibition in vivo at 50 mg/kg was at least 51%.

Molecule `COc1ccc2c(c1)c(=O)nc(C(C)C)n2-c1ccccc1` displayed an inhibition in vivo at 50 mg/kg in series [7] of at least 51%. In series [4], `Cc1ccccc1-n1c(C(C)C)nc(=O)c2ccccc21` displayed an inhibition in vivo at 50 mg/kg of 40%. In turn, `CC(C)n1c(-c2ccc(Cl)cc2)nc(=O)c2ccccc21` showed an inhibition in vivo at 50 mg/kg in series [11] of 50%. The “Ulcer Index” value in [12] was determined as 0. In addition, the ED30 in [8] was 15 mg/kg; in series [10], 44 mg/kg. This molecule yielded a No. of mice in series [13] of 0. The same molecule showed a Toxicity in series [14] of 5. For the molecule `CC(C)n1c(-c2ccccc2)nc(=O)c2ccccc21`, the inhibition in vivo at 50 mg/kg in series [11] worked out at 50%. In turn, `CC(=O)c1ccc2c(c1)c(=O)nc(C(C)C)n2-c1ccccc1` yielded an inhibition in vivo at 50 mg/kg in [1] of 10%.

In the case of `CC(C)c1nc(=O)c2ccccc2n1-c1ccc(Cl)cc1`, the inhibition in vivo at 50 mg/kg in series [7] was at least 51%. In the case of `CC(C)n1c(-c2ccccc2Cl)nc(=O)c2cc(Cl)ccc21`, in series [11], the inhibition in vivo at 50 mg/kg was 50%. `CC(C)(C)c1nc(=O)c2ccccc2n1-c1ccccc1`: in series [1], the inhibition in vivo at 50 mg/kg is 10%. On to `CC(C)n1c(-c2ccc(F)cc2)nc(=O)c2cc(Cl)ccc21`, for which the inhibition in vivo at 50 mg/kg in series [11] turned out to be 50%. The results for the ED30 in [8] and in series [10] were 18 mg/kg and 100 mg/kg, respectively. In turn, `CC(C)c1nc(=O)c2ccc([N+](=O)[O-])cc2n1-c1ccccc1` came in with an inhibition in vivo at 50 mg/kg in series [1] of 10%. In series [2], `CC(C)n1c(-c2ccccc2)nc(=O)c2c(Cl)cccc21` yielded an inhibition in vivo at 50 mg/kg of 20%. In the case of `O=C(O)CCc1nc(=O)c2ccccc2n1-c1ccccc1`, in series [1], the inhibition in vivo at 50 mg/kg was 10%. `CC(C)n1c(-c2ccccc2)nc(=O)c2ccc(Cl)cc21`: the inhibition in vivo at 50 mg/kg in series [11] came out at 50%. Moreover, the ED30 in series [8] is 16 mg/kg. The same molecule returned a No. of mice in [15] of 3. Moreover, in series [16], the “Ulcer Index” value was determined as 0.2. In series [17], this molecule had a Toxicity of 0. Further, the ED30 result in [18] was “inactive”. As to `Cc1ccc(-c2nc(=O)c3ccccc3n2C(C)C)cc1`, 50 mg/kg produced 10% inhibition in vivo in series [1].

Turning to `CC(C)c1nc(=O)c2ccccc2n1-c1ccc(N)cc1`, in [3], at 50 mg/kg the inhibition in vivo was 30%. The molecule `CC(C)n1c(-c2ccc(Br)cc2)nc(=O)c2ccccc21` had an inhibition in vivo at 50 mg/kg in series [11] of 50%. Molecule `CC(C)n1c(-c2ccccc2)nc(=O)c2cc(F)ccc21` gave an inhibition in vivo at 50 mg/kg in series [4] of 40%. For `O=c1nc(C2CC2)n(-c2ccc(F)cc2)c2ccccc12`, the inhibition in vivo at 50 mg/kg in [7] is at least 51%. As for `O=c1nc(C2CCC2)n(-c2ccccc2)c2ccccc12`, at 50 mg/kg the inhibition in vivo in [3] was 30%. The molecule `CC(C)c1nc(=O)c2ccccc2n1-c1ccccc1C(N)=O` registered an inhibition in vivo at 50 mg/kg in series [1] of 10%. Same read-out and setting: in the case of `CCCCc1nc(=O)c2ccccc2n1-c1ccccc1` it was 10%. `CC(C)c1nc(=O)c2ccccc2n1-c1ccc(F)cc1` returned an inhibition in vivo at 50 mg/kg in series [11] of 50%. For the same molecule, the results for the ED30 in series [8] and in [10] were 30 mg/kg and 76 mg/kg, respectively.
